Assay [1] concerns the target T1, human neutrophil elastase (Homo sapiens, UniProt P08246).
T1 sequence (P08246 30-267): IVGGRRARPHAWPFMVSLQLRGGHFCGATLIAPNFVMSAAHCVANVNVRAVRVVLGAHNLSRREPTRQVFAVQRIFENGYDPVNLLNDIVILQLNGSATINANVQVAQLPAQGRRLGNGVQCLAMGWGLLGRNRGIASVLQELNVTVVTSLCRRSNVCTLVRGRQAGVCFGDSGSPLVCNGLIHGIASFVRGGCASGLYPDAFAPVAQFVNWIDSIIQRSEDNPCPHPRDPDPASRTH
Briefly: In vitro assay of human neutrophil elastase (HNE). The assay is classed as biochemical. The conditions noted are these: 118 nM purified human neutrophil elastase, pH 8.6, 15 min incubation at 30° C., MeO-succinyl-alanyl-alanyl-prolyl-valyl-p-nitroanilide substrate; read-out: HNE IC50. In a few lines:
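Residual activity was taken as the 10 min rate of absorbance rise at 405 nm after adding 0.6 mM MeO-succinyl-AAPV-p-nitroanilide. Curve fitting of activity against concentration gave IC50.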

The test system of the next assay is Intracellular elastase. Briefly: Oral in vivo model using IL-8 induced lung infiltrates for the assessment of intracellular elastase inhibition (hamster test). To be noted: effective dose of less than 40 mg/kg, IL-8 intratracheal. In outline: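 Fasted adult hamsters (n=4) given compound orally in water, with intratracheal 1 ug recombinant human IL-8; sacrificed 6 h later. Neutrophils from lung lavage and femoral bone marrow sonicated, granules disrupted, and elastase measured, with myeloperoxidase used to normalise for neutrophil recovery.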

Structures can show the parent of a compound that is named as a salt.

Regarding `CC(C)[C@H]1C(=O)N(S(C)(=O)=O)[C@H]2CCN(C(=O)c3ccc(CN(C)C)cc3)[C@H]12.Cl` (relative stereo) [Example 175, rel-(3R,3aR,6aS)-4-(4-Dimethylaminomethyl-benzoyl)-3-isopropyl-1-methanesulfonyl-hexahydro-pyrrolo[3,2-b]pyrrol-2-one hydrochloride], in assay [1], the concentration for half-maximal inhibition (IC50) came out at 74 nM. For the same molecule, the duration of effect entry in the assay with Intracellular elastase is listed as “at least 6 hours”.
Take `CC(C)[C@H]1C(=O)N(S(C)(=O)=O)[C@H]2CCN(C(=O)/C=C/c3ccc(CN(C)C)cc3)[C@H]12` (relative stereo) [Example 159, hydrochloride]: the IC50 in assay [1] was 17 nM. Also, the duration of effect entry in the assay with Intracellular elastase is on record as “at least 6 hours”.
As for `CC(C)[C@H]1C(=O)N(S(C)(=O)=O)[C@H]2CCN(C(=O)/C=C/CN3CCCC3)[C@H]12.Cl` (relative stereo) [Example 146, rel-(3R,3aR,6aS)-3-Isopropyl-1-methanesulfonyl-4(4-pyrrolidin-1-yl-but-2E-enoyl)-hexahydro-pyrrolo[3,2-b]pyrrol-2-one hydrochloride], the IC50 in assay [1] turned out to be 34 nM. Moreover, the duration of effect result in the assay on Intracellular elastase is given as “at least 6 hours”.
As to `CC(C)[C@H]1C(=O)N(S(C)(=O)=O)[C@H]2CCN(C(=O)c3cccc(CNC4CC4)c3)[C@H]12.Cl` (relative stereo) [Example 190, rel-(3R,3aR,6aS)-4-(3-Cyclopropylaminomethyl-benzoyl)-3-isopropyl-1-methanesulfonyl-hexahydro-pyrrolo[3,2-b]pyrrol-2-one hydrochloride], the IC50 in assay [1] worked out at 24 nM. In addition, the duration of effect result with Intracellular elastase was “at least 6 hours”.
For `CCC[C@H]1C(=O)N(S(C)(=O)=O)[C@H]2CCN(C(=O)CCN3CCCCC3)[C@H]12` (relative stereo) [Example 29, rel-(3R,3aR,6aS)-1-Methanesulfonyl-4-(3-piperidin-1-yl-propionyl)-3-propyl-hexahydro-pyrrolo[3,2-b]pyrrol-2-one] the same measures were 139 nM and “at least 6 hours”.
`CCC[C@H]1C(=O)N(S(C)(=O)=O)[C@H]2CCN(C(=O)CCCCCN3CCCCCC3)[C@H]12` (relative stereo) [Example 59, hydrochloride]: the IC50 in assay [1] is 39 nM. Further, the duration of effect entry in the assay on Intracellular elastase is given as “at least 6 hours”.
For `CC(C)[C@H]1C(=O)N(S(C)(=O)=O)[C@H]2CCN(C(=O)/C=C/CN3CCCCCC3)[C@H]12` (relative stereo) [Example 136, hydrochloride] the same measures were 22 nM and “at least 6 hours”.
For `CC(C)[C@H]1C(=O)N(S(C)(=O)=O)[C@H]2CCN(C(=O)c3cccc(CN4CCC(C(N)=O)CC4)c3)[C@H]12.Cl` (relative stereo) [Example 191, rel-1-[3-(6R-Isopropyl-4-methanesulfonyl-5-oxo-hexahydro-(3aS,6aR)-pyrrolo[3,2-b]pyrrole-1-carbonyl)-benzyl]-piperidine-4-carboxylic acid amide hydrochloride] the same measures were 41 nM and “at least 6 hours”.
On the same counts, the results for `CC(C)[C@H]1C(=O)N(S(C)(=O)=O)[C@H]2CCN(C(=O)/C=C/CN3CCN(C)CC3)[C@H]12.Cl` (relative stereo) [Example 143, rel-(3R,3aR,6aS)-3-Isopropyl-1-methanesulfonyl-4-[4-(4-methyl-piperazin-1-yl)-but-2E-enoyl]-hexahydro-pyrrolo[3,2-b]pyrrol-2-one hydrochloride] are 33 nM and “at least 6 hours”.
For `CC(C)[C@H]1C(=O)N(S(C)(=O)=O)[C@H]2CCN(C(=O)CCN3CCCCC3)[C@H]12` (relative stereo) [Example 61, rel-(3R,3aR,6aS)-3-isopropyl-1-methanesulfonyl-4-(3-piperidin-1yl-propionyl-hexahydro-pyrrolo[3,2-b]pyrrol-2-one hydrochloride], the IC50 in assay [1] is 242 nM. The duration of effect entry with Intracellular elastase was “at least 6 hours”.
On the same counts, the results for `CC(C)[C@H]1C(=O)N(S(C)(=O)=O)[C@H]2CCN(C(=O)/C=C/CN3C[C@H]4Cc5c(F)ccc(F)c5C[C@@H]4C3)[C@H]12` (relative stereo) [Example 153, rel-(3R,3aR,6aS)-4-[4-(5,8-Difluoro-1,3,3a,4,9,9a-hexahydro-(3aS,9aS)-benzol[f]isoindol-2-yl)-but-2E-enoyl]-3-isopropyl-1-methanesulfonyl-hexahydro-pyrrolo[3,2-b]pyrrol-2-one hydrochloride] are 114 nM and “at least 6 hours”.
For `CCC[C@@H]1C(=O)N(S(C)(=O)=O)[C@@H]2CCN(C(=O)CCN3CCCCC3)[C@@H]12.Cl` [Example 118, (3S,3aS,6aR)-1-Methanesulfonyl-4-(3-piperidin-1-yl-propionyl)-3-propyl-hexahydro-pyrrolo[3,2-b]pyrrol-2-one hydrochloride], the IC50 in assay [1] came to 73 nM. Besides, in the assay on Intracellular elastase, the duration of effect entry is “at least 6 hours”.
As to `CC(C)[C@H]1C(=O)N(S(C)(=O)=O)[C@H]2CCN(C(=O)c3ccc(CN4CCCCC4)o3)[C@H]12.Cl` (relative stereo) [Example 250, rel-(3R,3aR,6aS)-3-Isopropyl-1-methanesulfonyl-4-(5-piperidin-1-ylmethyl-furan-2-carbonyl)-hexahydro-pyrrolo[3,2-b]pyrrol-2-one hydrochloride], in assay [1], the IC50 worked out at 21 nM. Further, the duration of effect result with Intracellular elastase is listed as “at least 6 hours”.
On the same counts, the results for `COC(=O)[C@@H]1CCCN1C/C=C/C(=O)N1CC[C@H]2[C@H]1[C@@H](C(C)C)C(=O)N2S(C)(=O)=O` (relative stereo) [Example 140, 1-[4-(rel-6R-Isopropyl-4-methanesulfonyl-5-oxo-hexahydro-(3aS,6aR)-pyrrolo[3,2-b]pyrrol-1-yl)-4-oxo-but-2E-enyl]-pyrrolidine-2S-carboxylic acid methyl ester hydrochloride] are 36 nM and “at least 6 hours”.
On the same counts, the results for `CC(C)[C@H]1C(=O)N(S(C)(=O)=O)[C@H]2CCN(C(=O)c3ccc(CN4CCCC4)cc3)[C@H]12.Cl` (relative stereo) [Example 173, rel-(3R,3aR,6aS)-3-Isopropyl-1-methanesulfonyl-4-(4-pyrrolidin-1-ylmethyl-benzoyl)-hexahydro-pyrrolo[3,2-b]pyrrol-2-one hydrochloride] are 65 nM and “at least 6 hours”.
For `CC(C)[C@H]1C(=O)N(S(C)(=O)=O)[C@H]2CCN(C(=O)/C=C/CN3C(C)CCC3C)[C@H]12.Cl` (relative stereo) [Example 149, rel-(3R,3aR,6aS)-4-[4-(2,5-Dimethyl-pyrrolidin-1-yl)-but-2E-enoyl]-3-isopropyl-1-methanesulfonyl-hexahydro-pyrrolo[3,2-b]pyrrol-2-one hydrochloride] the same measures were 46 nM and “at least 6 hours”.
For the molecule `CCC[C@@H]1C(=O)N(S(C)(=O)=O)[C@@H]2CCN(C(=O)CCCCCN3CCCCCC3)[C@@H]12` [Example 117, hydrochloride], in assay [1], the IC50 is 27 nM. Moreover, in the assay on Intracellular elastase, the duration of effect result is “at least 6 hours”.
For `CC(C)[C@H]1C(=O)N(S(C)(=O)=O)[C@H]2CCN(C(=O)c3ccc(CNC4CC4)cc3)[C@H]12.Cl` (relative stereo) [Example 180, rel-(3R,3aR,6aS)-4(4-Cyclopropylaminomethyl-benzoyl)-3-isopropyl-1-methanesulfonyl-hexahydro-pyrrolo[3,2-b]pyrrol-2-one hydrochloride] the same measures were 42 nM and “at least 6 hours”.
On the same counts, the results for `CC(C)[C@H]1C(=O)N(S(C)(=O)=O)[C@H]2CCN(C(=O)/C=C/CNC3CC3)[C@H]12.Cl` (relative stereo) [Example 137, rel-(3R,3aR,6aS)-4-(4-Cyclopropylamino-but-2E-enoyl)-3-isopropyl-1-methanesulfonyl-hexahydro-pyrrolo[3,2-b]pyrrol-2-one hydrochloride] are 45 nM and “at least 6 hours”.
As for `CC(C)[C@H]1C(=O)N(S(C)(=O)=O)[C@H]2CCN(C(=O)c3ccc(CN4CCCCC4)cc3)[C@H]12.Cl` (relative stereo) [Example 174, rel-(3R,3aR,6aS)-3-Isopropyl-1-methanesulfonyl-4-(4-piperidin-1-ylmethyl-benzoyl)-hexahydro-pyrrolo[3,2-b]pyrrol-2-one hydrochloride], the IC50 in assay [1] stood at 13 nM. Also, the duration of effect entry with Intracellular elastase was “at least 6 hours”.
On the same counts, the results for `CC(C)[C@H]1C(=O)N(S(C)(=O)=O)[C@H]2CCN(C(=O)c3ccc(CN4CCC5CCCCC5C4)cc3)[C@H]12.Cl` (relative stereo) [Example 184, rel-(3R,3aR,6aS)-3-Isopropyl-1-methanesulfonyl-4-[4-(octahydro-isoquinolin-2-ylmethyl)-benzoyl]-hexahydro-pyrrolo[3,2-b]pyrrol-2-one hydrochloride] are 12 nM and “at least 6 hours”.

In general, IC50 refers to the midpoint of a concentration-inhibition curve.

(Values after US6215002A, “Pyrrolopyrrolone derivatives as inhibitors of neutrophil elastase” (priority 1996, dated 2001).)
